{
  "source": "patent US20230263900A1",
  "about": "“DENDRIMER-DRUG CONJUGATE” (priority 2020, published 2023)",
  "key": {"in vivo": {"test": "in vivo", "protocol": "The ability to deliver dendrimer-drug conjugates via the pulmonary route was evaluated.\nMale Sprague Dawley (SD) rats (8-9 weeks, 270-320 g) were obtained from Monash Animal Services (VIC, Australia). Female F344 rats (8-10 weeks) were supplied by Animal Resources Centre (Perth, Australia).\nBlood samples and urine were then collected for up to 5 days. […] At the completion of the study, bronchoalveolar lavage fluid (BALF), lungs, liver, heart, spleen, kidneys and pancreas were collected from rats for biodistribution analysis. BALF was collected via the intratracheal perfusion of 3×5 ml saline Alveolar macrophages were isolated from BALF via centrifugation at 600×g for 10 mins. […] Plasma, urine, feces, and organs were analysed for radiolabel via liquid scintillation counting. Total doxorubicin in plasma, BALF and lung tissue in pulmonary dosed rats was analysed via a fluorescence HPLC (Kaminskas L M, et al, Nanomedicine. 2012 January; 8(1):103-11).\nData are represented as mean±s.d. (n=3-7)."}, "[1]": {"details": "cited from earlier work"}, "[2]": {"parameters": "species or system rats", "details": "rat, in vivo", "protocol": "The dendrimer BHALys[Lys]2[Lys]4[Lys]8[Lys]16(PEG2000)32 was constituted to 10 mg/ml in PBS and stored at −20° C. until required. The construction of the dendrimer was as described previously (Kaminskas L M, et al Mol Pharm. 2008 May-June; 5(3):449-63).\nRats were intravenously administered 1 ml of dendrimer in sterile saline over 2 mins. […] For the pharmacokinetic evaluation of dendrimer administered to the lungs as an aerosolized dose, rats were cannulated only via the right carotid artery. Rats were administered 1 mg of dendrimer in 100 μl saline via intratracheal insertion of the Penn Century micro spray aerosol device to the lungs of rats under isoflurane anaesthesia. […] Plasma, urine, feces and lungs were analysed for radiolabel via liquid scintillation counting\n(n=4-5 rats) and data is normalized to 5 mg/kg dendrimer. […] Data in Figure B represents mean±s.d. (n=4 rats) 7 days after the pulmonary dose."}, "[3]": {"test": "Release of Remdesivir in PBS buffer (Release Method 1)", "format": "physicochemical", "details": "PBS buffer with 10% v/v DMSO, pH 7.4, 37° C.", "protocol": "Release Method 1: An accurately weighed amount of the Remdesivir-dendrimer (10 mg) construct was dissolved in pH 7.4 PBS buffer:DMSO (9:1 v/v) and the volume made up to 20.0 mL in a volumetric flask to give a 0.5 mg/mL stock solution. The stock solution was aliquoted into several 2 mL screw-cap vials, the caps fitted and the vials heated at 37° C. The aliquoted solutions were analyzed at different time points by HPLC (HPLC Method 3). The concentration of Remdesivir RHa-1 was calculated by comparing the area under the peak associated with Remdesivir RHa-1 to a standard curve in MeCN:DMSO (9:1, v/v). The percentage of Remdesivir RHa-1 released is the percentage of available Remdesivir RHa-1 based on the loading of the construct as determined by ^1H NMR analysis (API Loading Method 1).\nThe extent to which the Remdesivir RHa-1 was released over time in PBS buffer (with 10% v/v DMSO) (pH 7.4) at 37° C. was determined for 5 constructs, RHa-17, RHa-15, RHa-11, RHa-5 and RHa-3 (Release Method 1) over 120 hours.\nTrace amounts of other components were also observed (presumed to be degradation products of Remdesivir RHa-1). The area under the resolvable (separated) peaks associated with these degradants was also added to the peak area associated with released Remdesivir RHa-1.\nBHALys [Lys]2[Lys]4[Lys]8[Lys]16[Lys]32[(α-NH-6N-TDA-Remdesivir)32(ε-NH-COPEG2000)32] RHa-5 contained 1.77% free Remdesivir RHa-1 at t=0 min. The value of released Remdesivir RHa-1 shown in FIG. 3 has been adjusted to take this into account."}, "Solubility studies": {"test": "Solubility studies", "format": "physicochemical", "protocol": "The solubility of BHALys[Lys]2[Lys]4[Lys]8[Lys]16[Lys]32[(α-NH-3′ O-Glu-Remdesivir)32(ε-NH-COPEG2000)32] RHa-3 in water was determined to be ≥200 mg/mL (or ≥43.6 mg/mL Remdesivir RHa-1) by adding water (250 μL) to 50.0 mg of BHALys [Lys]2[Lys]4[Lys]8[Lys]16[Lys]32[(α-NH-3′ O-Glu-Remdesivir)32(ε-NH-COPEG2000)32] and swirling briefly. After 2 min, the resulting solution was visually inspected for particulates and found to be a clear solution (see FIG. 2). Solutions shown are 40 mg/ml Remdesivir equivalents (equivalent to 200 mg/ml of conjugate RHa-3).\nThe solubility of BHALys[Lys]2[Lys]4[Lys]8[Lys]16[Lys]32[(α-NH-6N-TDA-Remdesivir)32(ε-NH-COPEG2000)32] RHa-5, in EtOH:Water (1:9 v/v) was determined to be ≥543 mg/mL (or ≥107 mg/mL Remdesivir RHa-1) by adding water EtOH:Water (1:9 v/v, 400 μL) to 380 mg of RHa-5. The mixture was swirled briefly and left to stand at rt. After 1.5 h the resulting solution (volume recorded=700 μL) was visually inspected for particulates and found to be a clear solution.\nThe solubility of BHALys[Lys]2[Lys]4[Lys]8[Lys]16[Lys]32[(α-NH-6N-TDA-Remdesivir)32(ε-NH-COPEG1000)32] RHa-17 in EtOH:Water (1:9 v/v) was determined to be ≥354* mg/mL (or ≥85 mg/mL Remdesivir RHa-1) by adding EtOH:Water (1:9 v/v, 958 μL) portionwise to 525 mg of RHa-17, over a period of 1.5 h with intermittent swirling. The resulting solution was visually inspected for particulates and found to be a clear solution.\n(*Total volume not recorded. Assumes 1 mg construct contributes to 1 μL of final solution (i.e., total volume of final solution=1483 μL))."}, "[4]": {"test": "Viscosity measurements (Viscosity Method 1)", "format": "physicochemical", "details": "50 mg/mL Remdesivir equivalents in EtOH: Water (1:9 v/v)", "protocol": "Viscosities were measured on Anton Paar ViscoQC300 Viscometer using CC-12 cup.\nViscosity Method 1: A reference standard solution (Standard Type: RT500, CAS No. 63148-62-9, Paragon Scientific Ltd) was first recorded and found to be within the range of reported value (at 20° C.: found 556.6 cP, theoretical 551.0 cP; at 25° C.: found 503.3 cP, theoretical 498.6 cP). Accurately weighed quantities of respective conjugates were dissolved in EtOH:Water […] to make a 50 mg/mL Remdesivir equivalent solution (total volume 2.30-2.40 mL) and the viscosity of the solution was recorded at 20° C. and 25° C.\nViscosities of 2 formulations containing either RHa-5 or RHa-17 in EtOH: Water (1:9 v/v) were measured using Viscosity Method 1"}, "[5]": {"details": "male, Sprague-Dawley, rat, in vivo"}, "[6]": {"details": "male, Sprague-Dawley, rat, in vivo, inhaled or intranasal, 0.6 mg"}},
  "data": [
    {"molecule": "COc1cccc2c1C(=O)c1c(O)c3c(c(O)c1C2=O)C[C@@](O)(C(=O)CO)C[C@@H]3O[C@H]1C[C@H](N)[C@H](O)[C@H](C)O1", "note": "[Doxorubicin, doxorubicin]", "values": [
      {"measurement": "Fabs 0-∞, doxorubicin", "setting": "in vivo; [5]", "result": "83 ± 9", "unit": "%"},
      {"measurement": "Kel, doxorubicin", "setting": "in vivo; [5]", "result": "0.132 ± 0.010 ^−h"},
      {"measurement": "Tmax", "setting": "in vivo; [6]", "result": "6 ± 3", "unit": "min"},
      {"measurement": "half-life", "setting": "in vivo; [6]", "result": "5 ± 0.4", "unit": "h"},
      {"measurement": "AUC", "setting": "in vivo; male, Sprague-Dawley, rat, in vivo, iv, 0.75 mg/kg", "result": "0.21 ± 0.04", "unit": "µg·h/mL"},
      {"measurement": "AUC", "setting": "in vivo; male, Sprague-Dawley, rat, plasma, inhaled or intranasal, 0.6 mg", "result": "0.17 ± 0.02", "unit": "µg·h/mL"},
      {"measurement": "Kel, doxorubicin", "setting": "in vivo; rats, intravenous, doxorubicin normalized to 0.75 mg/kg", "result": "0.518 ± 0.312 ^−h"}
    ]},
    {"molecule": "N#C[C@@]1(c2ccc3c(N)ncnn23)O[C@H](CO)[C@@H](O)[C@H]1O", "note": "[GS-441524]", "values": [
      {"measurement": "AUC0-24", "setting": "[1]; IV infusion of 200 mg Remdesivir, healthy human subjects", "result": 7.7, "unit": "µM·h"},
      {"measurement": "Cmax", "setting": "[1]; after 200 mg dose of Remdesivir", "result": 0.152, "unit": "µg/mL"},
      {"measurement": "Peak plasma concentration", "setting": "[1]; after 30 minutes infusion of Remdesivir", "result": "about 150 ng/ml"}
    ]},
    {"molecule": "BHALys[Lys]2[Lys]4[Lys]8[Lys]16(PEG2000)32", "values": [
      {"measurement": "Bioavailability after lung delivery", "setting": "[2]", "result": "2.4±3.3", "unit": "%"}
    ]},
    {"molecule": "BHALys[Lys]2[Lys]4[Lys]8[Lys]16[Lys]32[(α-NH-3′O-DGA-Remdesivir)32(ε-NH-COPEG2000)32] [RHa-11]", "values": [
      {"measurement": "Approx. Time taken for 50% Remdesivir release", "setting": "[3]", "result": "~3", "unit": "h"}
    ]},
    {"molecule": "BHALys[Lys]2[Lys]4[Lys]8[Lys]16[Lys]32[(α-NH-3′O-Glu-Remdesivir)32(ε-NH-COPEG2000)32] [RHa-3]", "values": [
      {"measurement": "Approx. Time taken for 50% Remdesivir release", "setting": "[3]", "result": ">120", "unit": "h"},
      {"measurement": "Solubility in water", "setting": "Solubility studies; water, conjugate mass, visual inspection after 2 min", "result": "≥ 200", "unit": "mg/mL"},
      {"measurement": "Solubility in water, as Remdesivir RHa-1", "setting": "Solubility studies; water, expressed as Remdesivir RHa-1", "result": "≥ 43.6", "unit": "mg/mL"}
    ]},
    {"molecule": "BHALys[Lys]2[Lys]4[Lys]8[Lys]16[Lys]32[(α-NH-6N-TDA-Remdesivir)32(ε-NH-COPEG1000)32] [RHa-17]", "values": [
      {"measurement": "Approx. Time taken for 50% Remdesivir release", "setting": "[3]", "result": "~48", "unit": "h"},
      {"measurement": "Solubility in EtOH:Water (1:9 v/v)", "setting": "Solubility studies; EtOH:Water (1:9 v/v), conjugate mass, rt", "result": "≥ 354", "unit": "mg/mL"},
      {"measurement": "Solubility in EtOH:Water (1:9 v/v), as Remdesivir RHa-1", "setting": "Solubility studies; EtOH:Water (1:9 v/v), expressed as Remdesivir RHa-1", "result": "≥ 85", "unit": "mg/mL"},
      {"measurement": "Viscosity at 20° C.", "setting": "[4]", "result": 38.99, "unit": "cP"},
      {"measurement": "Viscosity at 25° C.", "setting": "[4]", "result": 29.32, "unit": "cP"}
    ]}
  ]
}
